Test results as given in patent publication US20240124432A1, “HERBICIDAL COMPOUNDS” (SYNGENTA CROP PROTECTION AG, priority 2020, published 2024).

Columns and labels:
Format in all cases: in vivo
[1] = system: ELEIN; experiment: Post-emergence biological efficacy; conditions: 312 h, evaluated after 13 days, read-out: damage to plant (100=total damage to plant; 0=no damage to plant)
Method: (§1) Seeds of weeds and/or crops were sown in standard soil in pots. After cultivation for 14 days under controlled conditions in a glasshouse (at 24/19° C., day/night; 16 hours light), the plants were sprayed with an aqueous spray solution derived from the formulation of the technical active ingredient in a small amount of acetone and a special solvent and emulsifier mixture referred to as IF50 (11.12% Emulsogen EL360 TM+44.44% N-methylpyrrolidone+44.44% Dowanol DPM glycol ether), to create a 50g/l solution which was then diluted using 0.2% Genapol XO80 as diluent to give the desired final dose of test compound.
(§2) The test plants were then grown under controlled conditions in the glasshouse (at 24/18° C., day/night; 15 hours light; 50% humidity)and watered twice daily. After 13 days the test was evaluated (100=total damage to plant; 0=no damage to plant).

[2] = system: ECHCG; experiment: Post-emergence biological efficacy; conditions: Echinochloa crus-galli, 312 h, evaluated after 13 days, read-out: damage to plant (100=total damage to plant; 0=no damage to plant)
Method: as §1, §2

[3] = system: AMAPA; experiment: Post-emergence biological efficacy; conditions: Amaranthus palmeri, 312 h, evaluated after 13 days, read-out: damage to plant (100=total damage to plant; 0=no damage to plant)
Method: as §1, §2

[4] = system: EPHHL; experiment: Post-emergence biological efficacy; conditions: Euphorbia heterophylla, 312 h, evaluated after 13 days, read-out: damage to plant (100=total damage to plant; 0=no damage to plant)
Method: as §1, §2

[5] = system: DIGSA; experiment: Post-emergence biological efficacy; conditions: Digitaria sanguinalis, 312 h, evaluated after 13 days, read-out: damage to plant (100=total damage to plant; 0=no damage to plant)
Method: as §1, §2

[6] = system: IPOHE; experiment: Post-emergence biological efficacy; conditions: Ipomoea hederacea, 312 h, evaluated after 13 days, read-out: damage to plant (100=total damage to plant; 0=no damage to plant)
Method: as §1, §2

[7] = system: CHEAL; experiment: Post-emergence biological efficacy; conditions: Chenopodium album, 312 h, evaluated after 13 days, read-out: damage to plant (100=total damage to plant; 0=no damage to plant)
Method: as §1, §2

[8] = system: LOLPE; experiment: Post-emergence biological efficacy; conditions: Lolium perenne, 312 h, evaluated after 13 days, read-out: damage to plant (100=total damage to plant; 0=no damage to plant)
Method: as §1, §2

[9] = system: SETFA; experiment: Post-emergence biological efficacy; conditions: Setaria faberi, 312 h, evaluated after 13 days, read-out: damage to plant (100=total damage to plant; 0=no damage to plant)
Method: as §1, §2

[10] = system: ECHCG; experiment: Pre-emergence biological efficacy; conditions: Echinochloa crus-galli, 312 h, evaluated after 13 days, read-out: damage to plant (100=total damage to plant; 0=no damage to plant)
Method: as §1, with “one day” for “14 days”
(§3) The test plants were then grown under controlled conditions in the glasshouse (at 24/18° C., day/night; 15 hours light; 50% humidity) and watered twice daily. After 13 days the test was evaluated (100=total damage to plant; 0=no damage to plant).

[11] = system: AMAPA; experiment: Pre-emergence biological efficacy; conditions: Amaranthus palmeri, 312 h, evaluated after 13 days, read-out: damage to plant (100=total damage to plant; 0=no damage to plant)
Method: as §1, with “one day” for “14 days”
as §3

[12] = system: EPHHL; experiment: Pre-emergence biological efficacy; conditions: Euphorbia heterophylla, 312 h, evaluated after 13 days, read-out: damage to plant (100=total damage to plant; 0=no damage to plant)
Method: as §1, with “one day” for “14 days”
as §3

[13] = system: IPOHE; experiment: Pre-emergence biological efficacy; conditions: Ipomoea hederacea, 312 h, evaluated after 13 days, read-out: damage to plant (100=total damage to plant; 0=no damage to plant)
Method: as §1, with “one day” for “14 days”
as §3

[14] = system: LOLPE; experiment: Pre-emergence biological efficacy; conditions: Lolium perenne, 312 h, evaluated after 13 days, read-out: damage to plant (100=total damage to plant; 0=no damage to plant)
Method: as §1, with “one day” for “14 days”
as §3

[15] = system: SETFA; experiment: Pre-emergence biological efficacy; conditions: Setaria faberi, 312 h, evaluated after 13 days, read-out: damage to plant (100=total damage to plant; 0=no damage to plant)
Method: as §1, with “one day” for “14 days”
as §3

SMILES	pest or weed control at 250 g/ha [1] [%]	pest or weed control at 250 g/ha [2] [%]	pest or weed control at 250 g/ha [3] [%]	pest or weed control at 250 g/ha [4] [%]	pest or weed control at 250 g/ha [5] [%]	pest or weed control at 250 g/ha [6] [%]	pest or weed control at 250 g/ha [7] [%]	pest or weed control at 250 g/ha [8] [%]	pest or weed control at 250 g/ha [9] [%]	pest or weed control at 250 g/ha [10] [%]	pest or weed control at 250 g/ha [11] [%]	pest or weed control at 250 g/ha [12] [%]	pest or weed control at 250 g/ha [13] [%]	pest or weed control at 250 g/ha [14] [%]	pest or weed control at 250 g/ha [15] [%]
CCOC(=O)C1(C)CC(c2cc(-c3ccc(C(F)(F)F)cc3Cl)c(F)cc2Cl)=NO1 (stereo not drawn) [Compound 1-7, Ethyl 3-[2-chloro-5-[2-chloro-4-(trifluoromethyl)phenyl]-4-fluoro-phenyl]-5-methyl-4H-isoxazole-5-carboxylate]	70	30	90	90	40	90	100	10	60	0	30	0	0	0	0
CCOC(=O)C1(C)CC(c2cc(-c3ccccc3Cl)c(F)cc2Cl)=NO1 (stereo not drawn) [Compound 1-19, Ethyl 3-[2-chloro-5-(2-chlorophenyl)-4-fluoro-phenyl]-5-methyl-4H-isoxazole-5-carboxylate]	20	20	90	90	20	80	90	10	40	0	0	0	0	0	0
CCOC(=O)C1(C)CC(c2cc(-c3ccc(C)cc3Cl)c(F)cc2Cl)=NO1 (stereo not drawn) [Compound 1-31, Ethyl 3-[2-chloro-5-(2-chloro-4-methyl-phenyl)-4-fluoro-phenyl]-5-methyl-4H-isoxazole-5-carboxylate]	70	30	100	80	30	90	100	20	50	0	30	10	0	0	0
CCOC(=O)C1(C)CC(c2cc(-c3cccc(C(F)(F)F)n3)c(F)cc2Cl)=NO1 (stereo not drawn) [Compound 1-43, Ethyl 3-[2-chloro-4-fluoro-5-[6-(trifluoromethyl)-2-pyridyl]phenyl]-5-methyl-4H-isoxazole-5-carboxylate]	70	20	80	20	30	60	80	0	90	0	20	0	0	0	0
CCOC(=O)C1(C)CC(c2cc(-c3cc(C(F)(F)F)cc(Cl)n3)c(F)cc2Cl)=NO1 (stereo not drawn) [Compound 1-67, Ethyl 3-[2-chloro-5-[6-chloro-4-(trifluoromethyl)-2-pyridyl]-4-fluoro-phenyl]-5-methyl-4H-isoxazole-5-carboxylate]	0	0	20	40	10	30	10	0	20	0	10	0	0	0	0
CCOC(=O)C1(C)CC(c2cc(-c3ccnc(Cl)c3Cl)c(F)cc2Cl)=NO1 (stereo not drawn) [Compound 1-535, Ethyl 3-[2-chloro-5-(2,3-dichloro-4-pyridyl)-4-fluoro-phenyl]-5-methyl-4H-isoxazole-5-carboxylate]	80	80	100	100	90	100	100	50	100	10		0	40	0	40
CCOC(=O)C1(C)CC(c2cc(-c3ccc(OC)nn3)c(F)cc2Cl)=NO1 (stereo not drawn) [Compound 1-703, Ethyl 3-[2-chloro-4-fluoro-5-(6-methoxypyridazin-3-yl)phenyl]-5-methyl-4H-isoxazole-5-carboxylate]	70	80	100	100	70	60	100	70	70	0		0	0	0	0
CCOC(=O)C1(C)CC(c2cc(-c3cnc(C(F)(F)F)cn3)c(F)cc2Cl)=NO1 (stereo not drawn) [Compound 1-751, Ethyl 3-[2-chloro-4-fluoro-5-[5-(trifluoromethyl)pyrazin-2-yl]phenyl]-5-methyl-4H-isoxazole-5-carboxylate]	100	100	100	100	100	100	100	70	100	50	20		50	20	40
CCOC(=O)C1(C)CC(c2cc(-c3cc(C(F)(F)F)cnc3Br)c(F)cc2Cl)=NO1 (stereo not drawn) [Compound 1-835, Ethyl 3-[5-[2-bromo-5-(trifluoromethyl)-3-pyridyl]-2-chloro-4-fluoro-phenyl]-5-methyl-4H-isoxazole-5-carboxylate]										0	70	0	10	0	0
